Counter-ions that a name gives are not always drawn.

In one assay the target is T1, haematopoietic prostaglandin D synthase (H-PGDS) (Homo sapiens, UniProt O60760).
T1 construct: Full length human H-PGDS cDNA (Invitrogen Ultimate ORF IOH13026) was amplified by PCR; made in house; host or cells: E. coli BL21 (DE3*), vector pET22b+
T1 sequence (O60760 whole entry): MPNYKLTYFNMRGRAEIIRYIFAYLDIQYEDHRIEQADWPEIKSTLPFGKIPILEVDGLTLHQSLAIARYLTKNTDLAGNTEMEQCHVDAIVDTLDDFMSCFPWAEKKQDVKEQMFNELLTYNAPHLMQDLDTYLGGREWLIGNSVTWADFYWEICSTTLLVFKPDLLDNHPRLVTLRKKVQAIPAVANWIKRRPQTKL
In words: H-PGDS RapidFire High Throughput Mass Spectrometry Assay. The settings on record: H-PGDS RapidFire MS assay, mean pIC50; read-out: Potency Range (mean pIC50) (converted). It counts as biochemical. As for the experimental part:
The H-PGDS RapidFire™ mass spectrometric assay monitors conversion of prostaglandin H2 (PGH2) to prostaglandin D2 (PGD2) by haematopoietic prostaglandin D synthase (H-PGDS). In the assay format described here, the substrate (PGH2) is formed in situ by the action of cyclooxygenase-2 on arachidonic acid. This first step is set up to be fast, and generates a burst of PGH2 at ˜10 μM. The PGH2 is then further converted to PGD2 by the H-PGDS enzyme. […] Plates are then read on the RapidFire™ high throughput solid phase extraction system (Agilent) which incorporates a solid phase extraction step coupled to a triple quadrupole mass spectrometer (AB SCIEX). Relative levels of PGD2 and PGF2α, which acts as a surrogate for substrate, are measured and a percent conversion calculated.
Full length human H-PGDS cDNA (Invitrogen Ultimate ORF IOH13026) was amplified by PCR with the addition of a 5′ 6-His tag and TEV protease cleavage site. The PCR product was digested with Ndel and Xhol and ligated into pET22b+ (Merck Novagen®). Expression was carried out in E. coli strain BL21 (DE3*) using auto-induction Overnight Express™ Instant TB medium (Merck Novagen®) supplemented with 1% glycerol. The culture was first grown at 37° C. and the temperature was reduced to 25° C. when OD600 reached 2.0. Cells were harvested by centrifugation after a further 18 hr. 10 g of E. coli cell pellet was suspended to a total volume of 80 mL in lysis buffer (20 mM Tris-Cl pH 7.5, 300 mM NaCl, 20 mM imidazole, 5 mM β-mercaptoethanol, 10% glycerol). 1 mg/mL protease inhibitors (Protease Inhibitor Cocktail Set Ill, Merck Calbiochem®) and 1 mg/mL lysozyme were added to the cell suspension. The suspension was then sonicated for 5 min (UltraSonic Processor VCX 750, Cole-Parmer Instrument Co.) with a micro probe (50% amplitude, 10 sec on/off) and then centrifuged at 100,000 g for 90 min (at 4° C.). The supernatant was loaded onto a Ni-NTA HiTrap column (5 mL, GE Heathcare, pre-equilibrated in lysis buffer). The column was washed with 10 column volumes of lysis buffer and eluted with lysis buffer containing 500 mM imidazole. The pooled protein peak fractions were concentrated using a 10 kDa centrifugal filter at 3500 g and 4° C. (Amicon Ultra-15 centrifugal filter unit with Ultracel-10 membrane from Millipore). Further purification of the concentrated protein was carried out using gel filtration chromatography on a HiLoad 26/600 Superdex 75 preparative grade column (GE Healthcare Life Sciences) using 50 mM Tris pH 7.5, 50 mM NaCl, 1 mM dithiothreitol, 1 mM MgCl2. Fractions containing the protein were pooled, concentrated as described above, and stored at −80° C.
The full length human COX-2 gene (accession number L15326) was amplified by PCR to generate an EcoRI-HindIII fragment containing an in-frame FLAG tag. This was subcloned into pFastBac 1 (Invitrogen). The COX2 FLAG plasmid was recombined into the baculovirus genome according to the BAC-to-BAC protocol described by Invitrogen. Transfection into Spodoptera frugiperda (Sf9) insect cells was performed using Cellfectin (Invitrogen), according to the manufacturer's protocol. […] Recombinant virus was added at a Multiplicity of Infection (MOI) of 5 and the culture was allowed to continue for 3 days. Cells were harvested using a continuous feed centrifuge run at 2500 g at a rate of approximately 2 L/min with cooling. The resultant cell slurry was re-centrifuged in pots (2500 g, 20 min, 4° C.) and the cell paste was stored at −80° C. […] The suspension was sonicated in 500 mL batches for 8×5 seconds at 10 u amplitude with the medium tip of an MSE probe sonicator and subsequently incubated at 4° C. for 90 min with gentle stirring. The lysate was centrifuged at 12000 rpm for 45 min at 4° C. in a Sorvall SLA1500 rotor. The supernatant (1400 mL) was added to 420 mL of 20 mM Tris-Cl pH 7.4, 150 mM NaCl, 0.1 mM EDTA to reduce the concentration of n-octyl-β-D-glucopyranoside to 1% w/v.
Turning to `COc1cc2ncc(C(=O)NC3CCN(c4nnnn4C)CC3)cc2cc1F` [Example 46, 6-Fluoro-7-methoxy-N-(1-(1-methyl-1H-tetrazol-5-yl)piperidin-4-yl)quinoline-3-carboxamide], the IC50 was 100 to 1000 nM. For `COc1ccc2cc(C(=O)Nc3nccs3)cnc2c1F` [Example 47, 8-Fluoro-7-methoxy-N-(thiazol-2-yl)quinoline-3-carboxamide hydrochloride], the IC50 was 10 to 79.4 nM. Take `O=C(N[C@H]1CC[C@H](NCC(F)F)CC1)c1cnc2cc(OC(F)F)c(F)cc2c1` [Example 49, N-(trans-4-((2,2-Difluoroethyl)amino)cyclohexyl)-7-(difluoromethoxy)-6-fluoroquinoline-3-carboxamide]: the IC50 is 10 to 79.4 nM. Regarding `CC(C)CN1CC[C@H](NC(=O)c2cnc3cc(OC(F)F)c(F)cc3c2)C1=O` [Example 50, (S)-7-(Difluoromethoxy)-6-fluoro-N-(1-isobutyl-2-oxopyrrolidin-3-yl)quinoline-3-carboxamide], the IC50 was 10 to 79.4 nM.

With `CC(C)(O)[C@H]1CC[C@H](NC(=O)c2cnc3cc(OC(F)F)c(F)cc3c2)CC1` [Example 51, 7-(Difluoromethoxy)-6-fluoro-N-(trans-4-(2-hydroxypropan-2-yl)cyclohexyl)quinoline-3-carboxamide], the IC50 is 10 to 79.4 nM. Still for that read-out and setting: next, `O=C(N[C@H]1CCC[C@H]1O)c1cnc2cc(OC(F)F)c(F)cc2c1` [Example 52, 7-(Difluoromethoxy)-6-fluoro-N-((1S,2R)-2-hydroxycyclopentyl)quinoline-3-carboxamide]: 100 to 1000 nM. Consider `O=C(N[C@H]1CCN(CC2CC2)C1=O)c1cnc2cc(OC(F)F)c(F)cc2c1` [Example 53, (S)—N-(1-(Cyclopropylmethyl)-2-oxopyrrolidin-3-yl)-7-(difluoromethoxy)-6-fluoroquinoline-3-carboxamide], for which the IC50 is 10 to 79.4 nM.

`O=C1CC(NC(=O)c2cnc3cc(OC(F)F)c(F)cc3c2)c2ccccc2N1` (centres unmarked) [Example 54, 7-(Difluoromethoxy)-6-fluoro-N-(2-oxo-1,2,3,4-tetrahydroquinolin-4-yl)quinoline-3-carboxamide]: the IC50 is 10 to 79.4 nM. Still for that read-out and setting: the same measure for `CO[C@H]1CC[C@H](NC(=O)c2cnc3cc(OC(F)F)c(F)cc3c2)CC1` [Example 55, 7-(Difluoromethoxy)-6-fluoro-N-(trans-4-methoxycyclohexyl)quinoline-3-carboxamide]: 10 to 79.4 nM; for `CS(=O)(=O)N[C@H]1CC[C@H](NC(=O)c2cnc3cc(OC(F)F)c(F)cc3c2)CC1` [Example 56, 7-(Difluoromethoxy)-6-fluoro-N-(trans-4-(methylsulfonamido)cyclohexyl)quinoline-3-carboxamide]: 10 to 79.4 nM; for `CC(N[C@H]1CC[C@H](NC(=O)c2cnc3cc(OC(F)F)c(F)cc3c2)CC1)C(F)(F)F` (stereo partly drawn) [Example 57, 7-(Difluoromethoxy)-6-fluoro-N-(trans-4-((1,1,1-trifluoropropan-2-yl)amino)cyclohexyl)quinoline-3-carboxamide]: 10 to 79.4 nM.

Turning to `O=C(NC1CCN(CC(F)(F)F)CC1)c1cnc2cc(OC(F)F)c(F)cc2c1` [Example 58, 7-(Difluoromethoxy)-6-fluoro-N-(1-(2,2,2-trifluoroethyl)piperidin-4-yl)quinoline-3-carboxamide], the IC50 is 10 to 79.4 nM. Same read-out and setting: the same measure for `O=C(N[C@H]1C[C@H](NCC(F)(F)F)C1)c1cnc2cc(OC(F)F)c(F)cc2c1` [Example 59, 7-(Difluoromethoxy)-6-fluoro-N-(trans-3-((2,2,2-trifluoroethyl)amino)cyclobutyl)quinoline-3-carboxamide]: 10 to 79.4 nM. For `CC(C)(O)CO[C@H]1CC[C@H](NC(=O)c2cnc3cc(OC(F)F)c(F)cc3c2)CC1` [Example 60, 7-(Difluoromethoxy)-6-fluoro-N-(trans-4-(2-hydroxy-2-methylpropoxy)cyclohexyl)quinoline-3-carboxamide], the IC50 was 10 to 79.4 nM.

In the case of `C[C@@H](N[C@H]1CC[C@H](NC(=O)c2cnc3cc(OC(F)F)c(F)cc3c2)CC1)C(F)(F)F` [Example 62, 7-(Difluoromethoxy)-6-fluoro-N-(trans-4-(((R)-1,1,1-trifluoropropan-2-yl)amino)cyclohexyl)quinoline-3-carboxamide], the IC50 was 10 to 79.4 nM.

For the molecule `C[C@H](N[C@H]1CC[C@H](NC(=O)c2cnc3cc(OC(F)F)c(F)cc3c2)CC1)C(F)(F)F` [Example 63, 7-(Difluoromethoxy)-6-fluoro-N-(trans-4-(((S)-1,1,1-trifluoropropan-2-yl)amino)cyclohexyl)quinoline-3-carboxamide], the IC50 is less than 10 nM.

With `O=C(N[C@@H]1CC[C@@H](NCC(F)(F)F)C1)c1cnc2cc(OC(F)F)c(F)cc2c1` [Example 64, 7-(difluoromethoxy)-6-fluoro-N-((1R,3R)-3-((2,2,2-trifluoroethyl)amino)cyclopentyl)quinoline-3-carboxamide], the IC50 is 10 to 79.4 nM. On to `O=C(NC1CCN(CC(F)F)CC1)c1cnc2cc(OC(F)F)c(F)cc2c1` [Example 65, N-(1-(2,2-Difluoroethyl)piperidin-4-yl)-7-(difluoromethoxy)-6-fluoroquinoline-3-carboxamide], for which the IC50 was 10 to 79.4 nM. On to `CC(C)(N[C@H]1CC[C@H](NC(=O)c2cnc3cc(OC(F)F)c(F)cc3c2)CC1)C(F)(F)F` [Example 66, 7-(Difluoromethoxy)-6-fluoro-N-(trans-4-((1,1-trifluoro-2-methylpropan-2-yl)amino)cyclohexyl)quinoline-3-carboxamide], for which the IC50 was less than 10 nM.

As for `CC(N[C@H]1CC[C@H](NC(=O)c2cnc3cc(OC(F)F)c(F)cc3c2)CC1)C(F)F` (stereo partly drawn) [Example 67, 7-(Difluoromethoxy)-N-(trans-4-((1,1-difluoropropan-2-yl)amino)cyclohexyl)-6-fluoroquinoline-3-carboxamide], the IC50 was 10 to 79.4 nM. For the molecule `O=C(NC1CCC(N2CCOCC2)CC1)c1cnc2cc(OC(F)F)c(F)cc2c1` (centres unmarked) [Example 68, 7-(Difluoromethoxy)-6-fluoro-N-(4-morpholinocyclohexyl)quinoline-3-carboxamide trifluoroacetic Acid Salt], the IC50 was 10 to 79.4 nM.

Regarding `C[C@@H](N[C@H]1CC[C@H](NC(=O)c2cnc3cc(OC(F)F)c(F)cc3c2)CC1)C(F)F` [Example 69, 7-(Difluoromethoxy)-N-(trans-4-(((R)-1,1-difluoropropan-2-yl)amino)cyclohexyl)-6-fluoroquinoline-3-carboxamide], the IC50 was 10 to 79.4 nM.

Regarding `C[C@H](N[C@H]1CC[C@H](NC(=O)c2cnc3cc(OC(F)F)c(F)cc3c2)CC1)C(F)F` [Example 70, 7-(Difluoromethoxy)-N-(trans-4-(((S)-1,1-difluoropropan-2-yl)amino)cyclohexyl)-6-fluoroquinoline-3-carboxamide], the IC50 was less than 10 nM.

Take `O=C(N[C@H]1CC[C@H](N2CC(F)(F)C2)CC1)c1cnc2cc(OC(F)F)c(F)cc2c1` [Example 71, N-(trans-4-(3,3-Difluoroazetidin-1-yl)cyclohexyl)-7-(difluoromethoxy)-6-fluoroquinoline-3-carboxamide]: the IC50 is 10 to 79.4 nM.

Still in this assay, the particulars now being: in at least one experimental run; read-out: H-PGDS pIC50 value (converted).
On to `COc1cc2ncc(C(=O)NC3CCN(c4nnnn4C)CC3)cc2cc1F` [Example 46, 6-Fluoro-7-methoxy-N-(1-(1-methyl-1H-tetrazol-5-yl)piperidin-4-yl)quinoline-3-carboxamide], for which the IC50 was 126 nM. `O=C(N[C@H]1C[C@H](NCC(F)(F)F)C1)c1cnc2cc(OC(F)F)c(F)cc2c1` [Example 59, 7-(Difluoromethoxy)-6-fluoro-N-(trans-3-((2,2,2-trifluoroethyl)amino)cyclobutyl)quinoline-3-carboxamide]: the IC50 was 50.1 nM.

The values are drawn from patent publication US20210238162A1, “CHEMICAL COMPOUNDS” (GlaxoSmithKline Intellectual Property Development Limited, priority 2015, published 2021).
